Measurements: EP0267050B1, “Aerosols containg liposomes and method for their preparation” (priority 1986, dated 1988)

Tests used:
[1] = tested on: polioviruses; conditions: cited from earlier work
[2] = tested on: cells in culture; conditions: cited from earlier work
[3] = tested on: Muscle from many organs of rats; assay: Effects in vitro on muscle: antagonism of dose response curves; conditions: rat muscle in vitro, 10⁻⁵ to 10⁻⁸M; similar to that of potassium chloride
Experimental: (§1) Effects in vitro on muscle. Muscle from many organs of rats was tested with 10⁻⁵ to 10⁻⁸M enviroxime.

[4] = tested on: coxsackieviruses; conditions: cited from earlier work
[5] = tested on: echoviruses; conditions: cited from earlier work
[6] = Plasma concentration after I.V. doses; assay type: in vivo, dogs
Experimental: (§2) Effects on cats and dogs. […] Plasma concentrations of enviroxime were 3.0, 8.9 and 19 µg/mL following these I.V. doses. Bioassay (antiviral) and biochemical assay of blood yielded similar results.

[7] = Animal tolerance: effects of oral doses in mice; assay type: in vivo
[8] = tested on: primary antibody response; assay type: in vivo; conditions: mice
[9] = Animal tolerance: diastolic blood pressure in dogs; assay type: in vivo; conditions: following 1, 3, and 10 mg/kg I.V. doses
Experimental: as §2

[10] = tested on: histamine; assay: Effects in vitro on muscle: receptor activation; set-up: species or system rats; conditions: rat muscle in vitro, 10⁻⁵ to 10⁻⁸M
Experimental: as §1

[11] = tested on: prostaglandin E2; assay: Effects in vitro on muscle: receptor activation; set-up: species or system rats; conditions: rat muscle in vitro, 10⁻⁵ to 10⁻⁸M
Experimental: as §1

[12] = tested on: adrenergic; assay: Effects in vitro on muscle: receptor activation; set-up: species or system rats; conditions: rat muscle in vitro, 10⁻⁵ to 10⁻⁸M
Experimental: as §1

[13] = Animal tolerance: effects on electrolytes and urine output; assay type: in vivo; conditions: rats
Excerpt: Effects on electrolytes. […] The oliguria was associated with increases in potassium in serum but not sodium.

[14] = tested on: rhinoviruses; conditions: all rhinoviruses tested; generally range; cited from earlier work
[15] = Animal tolerance: cardiovascular effects in cats; assay type: in vivo
Experimental: as §2

[16] = cited from earlier work
[17] = associated with the oliguria at 25 mg/kg and above

For `CC(C)S(=O)(=O)n1c(N)nc2ccc(/C(=N/O)c3ccccc3)cc21` [enviroxime], the activity against polioviruses [1] is given as “active”, the “Maximum tolerated concentrations for cells in culture” value [2] is given as 4 to 100 µg/mL and the “antagonism of dose response curves” value [3] is given as “some non-competitive antagonism”. The activity against coxsackieviruses [4] was “active”, the activity against echoviruses [5] was “active” and the Plasma concentrations ([6]; following 1 mg/kg I.V. dose) was 3000 ng/mL. The Plasma concentrations ([6]; following 3 mg/kg I.V. dose) was 8900 ng/mL, the Plasma concentrations ([6]; following 10 mg/kg I.V. dose) was 19000 ng/mL and the effects in mice ([7]; 50 mg/kg orally) was “no detectable effects”. The effects in mice ([7]; higher doses, 100-400 mg/kg) was “increasing leg weakness, decreased motor activity and gait disturbances”, the “onset of the effect of high doses” value ([7]; mice, high doses) was “within a few minutes” and the “tolerance of oral doses” value ([7]; oral doses up to 100 mg/kg, a number of other tests) was “well tolerated”. The “immune suppressive activity on primary antibody response” value [8] was “no immune suppressive activity”, the diastolic blood pressure [9] was “some stepwise depression” and the “activation of histamine receptors” value [10] was “did not activate”. For the same molecule, the “activation of prostaglandin E2 receptors” value [11] was “did not activate”, the “activation of adrenergic receptors” value [12] was “did not activate” and the potassium in serum [13, 17] was “increases”. The sodium in serum [13, 17] was “not”, the oliguria ([13]; dose of 25 mg/kg and above) was “significant oliguria” and the inhibitory concentrations [14] was 0.3 to 0.9 µg/mL. The cardiovascular effects [15] was “no significant cardiovascular effects” and the soluble in water [16] was 1 to 2 µg/mL.
